This is an account of results in US11655238B2 (priority 2018, dated 2023).

Test [1] concerns Mycobacterium smegmatis strain (mc2155). The test is described as follows: Resazurin microplate MIC on Mycobacterium smegmatis. The test is classed as cell-based. The following applies: for MIC: Mycolicibacterium smegmatis, MC2155, 48 h, read-out: MIC (μg/mL) Mycobacterium smegmatis. (In general: Resazurin is reduced to fluorescent resorufin, in cell work by metabolically active cells.)

Test [2] has as its system Mycobacterium bovis BCG strain. The test is described as follows: microbe, parasite or virus in culture. The test is classed as cell-based. The settings on record: for MIC: Mycobacterium tuberculosis variant bovis BCG, BCG, 168 h, read-out: MIC (μg/mL) Mycobacterium bovis BCG, BCG strain, 7H9 medium, 37° C., 168 hours, resazurin; for inhibitory effect on BCG strain (summary of Table 2): in words.

Test [3] concerns Mycobacterium tuberculosis H37Ra strain. Description: microbe, parasite or virus in culture. The test is classed as cell-based. The following applies: for MIC: Mycobacterium tuberculosis, H37RA, 168 h, read-out: MIC (μg/mL) Mycobacterium tuberculosis H37Ra.
Test [4] relates to Mycobacterium tuberculosis (H37Rv). The settings on record: reports, in words; cited from earlier work.
[5] abbreviates: mc2155, 7H9 medium, 37° C., 48 hours, resazurin.

In brackets after ≈: the same amount, converted by molar mass.

As to `Cc1c(C(=O)NCCNC23CC4CC(C)(CC(C)(C4)C2)C3)nn(-c2ccc(Cl)cc2Cl)c1-c1ccc(Cl)cc1` [Compound 23, (5-(4-chlorophenyl)-1-(2,4-dichlorophenyl)-N-(2-(((1r,3R,5S,7r)-3,5-dimethyl-adamantan-1-yl)amino)ethyl)-4-methyl-1H-pyrazole-3-carboxamide], the “inhibitory effect on smegmatis strain (summary of Table 2)” value (“inhibitory effect on smegmatis strain” for short) in test [1] is “good inhibitory effects”. In test [1] (setting [5]), the MIC was 7.32 µg/mL (≈ 12.5 µM). Moreover, in test [2], the MIC was found to be 3.66 µg/mL (≈ 6.25 µM) and the “inhibitory effect on BCG strain (summary of Table 2)” value (“inhibitory effect on BCG strain” below) is reported as “good inhibitory effects”. Moreover, in test [3], the “inhibitory effect on H37Ra strain (summary of Table 2)” value (“inhibitory effect on H37Ra strain” for short) is on record as “good inhibitory effects” and the MIC was 1.83 µg/mL (≈ 3.12 µM).
On to `Cc1c(CN(C)CCNC2C3CC4CC(C3)CC2C4)nn(-c2ccc(Cl)cc2Cl)c1-c1ccc(Cl)cc1` (stereo not shown) [Compound 165, N1-((1r,3r,5r,7r)-adamantan-2-yl)-N2-((5-(4-chloro-phenyl)-1-(2,4-dichloro-phenyl)-4-methyl-1H-pyrazol-3-yl)methyl)-N2-methylethane-1,2-diamine], for which the MIC in test [1] (setting [5]) came to 57.9 µg/mL (≈ 104 µM); in test [2], 3.62 µg/mL (≈ 6.49 µM); in test [3] it was 1.81 µg/mL (≈ 3.24 µM).
For `Cc1c(CNC(=O)NCCC23CC4CC(CC(C4)C2)C3)nn(-c2ccc(Cl)cc2Cl)c1-c1ccc(Cl)cc1` [Compound 12, 1-(2-((3r,5r,7r)-adamantan-1-yl)ethyl)-3-((5-(4-chloro-phenyl)-1-(2,4-dichlorophenyl)-4-methyl-1H-pyrazol-3-yl)-methyl)urea], in that order: 15.2 µg/mL (≈ 26.6 µM), greater than 122 µg/mL and 122 µg/mL (≈ 213 µM).
Take `Cc1c(C(=O)NCCCCNC2C3CC4CC(C3)CC2C4)nn(-c2ccc(Cl)cc2Cl)c1-c1ccc(Cl)cc1` (stereo not shown) [Compound 19, N-(4-(((1r,3r,5r,7r)-adamantan-2-yl)amino)butyl)-5-(4-chlorophenyl)-1-(2,4-dichlorophenyl)-4-methyl-1H-pyrazole-3-carboxamide]: the “inhibitory effect on smegmatis strain” value in test [1] was “good inhibitory effects”. Further, the MIC in test [1] (setting [5]) was 13.4 µg/mL (≈ 22.9 µM). In test [2], the MIC was 6.71 µg/mL (≈ 11.5 µM) and the “inhibitory effect on BCG strain” value was “good inhibitory effects”. In test [3], the “inhibitory effect on H37Ra strain” value is on record as “good inhibitory effects” and the MIC was 6.71 µg/mL (≈ 11.5 µM).
Take `Cc1c(C(=O)NCCNC2C3CC4CC(C3)CC2C4)nn(-c2ccc(Cl)cc2Cl)c1-c1ccc(Cl)cc1` (stereo not shown) [Compound 17, N-(2-(((1r,3r,5r,7r)-adamantan-2-yl)amino)ethyl)-5-(4-chloro-phenyl)-1-(2,4-dichlorophenyl)-4-methyl-1H-pyrazole-3-carboxamide]: in test [1], the “inhibitory effect on smegmatis strain” value was “good inhibitory effects”. Besides, in test [1] (setting [5]), the MIC was 11.9 µg/mL (≈ 21.3 µM). Further, in test [2], the MIC worked out at 5.95 µg/mL (≈ 10.7 µM) and the “inhibitory effect on BCG strain” value is listed as “good inhibitory effects”. For the same compound, in test [3], the “inhibitory effect on H37Ra strain” value is recorded as “good inhibitory effects” and the MIC amounted to 5.95 µg/mL (≈ 10.7 µM).
Regarding `Cc1c(CNCCNC2C3CC4CC(C3)CC2C4)nn(-c2ccc(Cl)cc2Cl)c1-c1ccc(Cl)cc1` (stereo not shown) [Compound 166, N1-((1r,3r,5r,7r)-adamantan-2-yl)-N2-((5-(4-chlorophenyl)-1-(2,4-dichlorophenyl)-4-methyl-1H-pyrazol-3-yl)-methyl)ethane-1,2-diamine], the figures for the MIC in test [1] (setting [5]), in test [2] and in test [3] were 7.62 µg/mL (≈ 14 µM), 7.62 µg/mL (≈ 14 µM) and 3.81 µg/mL (≈ 7 µM), respectively.
Consider `Cc1c(CNC(=O)NCC23CC4CC(CC(C4)C2)C3)nn(-c2ccc(Cl)cc2Cl)c1-c1ccc(Cl)cc1` [Compound 11, 1-(((3r,5r,7r)-adamantan-1-yl)-methyl)-3-((5-(4-chlorophenyl)-1-(2,4-dichlorophenyl)-4-methyl-1H-pyrazol-3-yl)-methyl)urea], for which the MIC in test [1] (setting [5]) was 134 µg/mL (≈ 240 µM); in test [2] it was greater than 134 µg/mL; in test [3] it was 33.5 µg/mL (≈ 60.1 µM).
Regarding `Cc1c(C(=O)NN2CCCCC2)nn(-c2ccc(Cl)cc2Cl)c1-c1ccc(Cl)cc1` [Rimonabant, rimonabant, reference compound], in test [1] (setting [5]), the MIC is 17 µg/mL (≈ 36.6 µM) and the “MIC (μg/mL) Mycobacterium smegmatis” value amounted to 16.99 µg/mL (≈ 36.6 µM). Further, the “MIC (μg/mL) Mycobacterium bovis BCG” value in test [2] (BCG strain, 7H9 medium, 37° C., 168 hours, resazurin) came to 33.99 µg/mL (≈ 73.3 µM). Besides, the MIC in test [2] worked out at 34 µg/mL (≈ 73.3 µM). Besides, in test [3], the “MIC (μg/mL) Mycobacterium tuberculosis H37Ra” value came to 16.99 µg/mL (≈ 36.6 µM) and the MIC came to 17 µg/mL (≈ 36.6 µM). For the same compound, in test [4], the “effect against Mycobacterium tuberculosis (H37Rv)” value was “significant effect”.
